A short description of one data set: Dynamic Vapour Sorption. It is filed as physicochemical. As to conditions: 25° C.; for hygroscopicity: 0-95% RH, two cycles, batches from Method 1 and Method 2 (FIGS. 4 and 5). The method, then: Analytical Instrument: Surface Measurements Systems Dynamic Vapour Sorption Analyser. About 5 mg of material contained in a quartz holder at a specified temperature was subjected to humidified nitrogen at a flow rate of 200 ml/minute of nitrogen at 25° C. at the following relative humidities (RH): 0, 20, 40, 60, 80, 95, 80, 60, 40, 20, 0% RH in duplicate. The weight of the material at a particular relative humidity was monitored until it was stable according to a weight criteria of 0.002% weight change per minute averaged over 10 minutes. If the weight was still changing then it stayed at a particular relative humidity until the weight was stable (up to a maximum time of 12 hours).

Data set [1] in a line: pro-drug conversion in human plasma. It is filed as in vitro ADME.
Data set [2] deals with human colorectal (SW620, HCT116, Colo205) and lung (A549, Calu-6) tumour xenografts. In words: tumour growth inhibition in human tumour xenografts. It is filed as in vivo. As to conditions: panel of human colorectal (SW620, HCT116, Colo205) and lung (A549, Calu-6) tumour xenografts; with statistical significance.

Results on two compounds are retold here after patent US7625910B2, “Co-crystal” (AstraZeneca AB, priority 2006, dated 2009).

Regarding `CCN(CCCOc1ccc2c(Nc3cc(CC(=O)Nc4cccc(F)c4)n[nH]3)ncnc2c1)CCOP(=O)(O)O` [AZD1152, 2-{ethyl[3-({4-[(5-{2-[(3-fluorophenyl)amino]-2-oxoethyl}-1H-pyrazol-3-yl)amino]quinazolin-7-yl}oxy)propyl]amino}ethyl dihydrogen phosphate], in the data set “Dynamic Vapour Sorption” (0-95% RH (FIG. 6), dehydrated to tetrahydrated state and higher), the “level of water (hydration state) with relative humidity” value is reported as “quite variable depending on the relative humidity of storage”. For the same compound, in data set [1], the “conversion of pro-drug to active moiety AZD1152 HQPA” value was “rapidly and completely converted”. For the same compound, the “inhibition of tumour growth” value in data set [2] was “inhibit tumour growth”.
Regarding `CCN(CCCOc1ccc2c(Nc3cc(CC(=O)Nc4cccc(F)c4)[nH]n3)ncnc2c1)CCOP(=O)(O)O.O=C(O)/C=C\C(=O)O` [AZD1152 maleate co-crystal, 2-{ethyl[3-({4-[(5-{2-[(3-fluorophenyl)amino]-2-oxoethyl}-1H-pyrazol-3-yl)amino]quinazolin-7-yl}oxy)propyl]amino}ethyl dihydrogen phosphate.maleate], the hygroscopicity result in “Dynamic Vapour Sorption” was “non-hygroscopic”; in “Dynamic Vapour Sorption” (listed as maleate co-crystal of AZD1152), “substantially non-hygroscopic”.
